Here are results for 50 compounds from patent US20090239841A1, “Diaryl Ureas as CB1 Antagonists” (priority 2004, published 2009).

The target in one experiment is T1, hCB1 (Homo sapiens, UniProt P21554).
T1 construct: made in house; host or cells: Sf9 insect cells (baculovirus), P2 membranes
T1 sequence (P21554 whole entry): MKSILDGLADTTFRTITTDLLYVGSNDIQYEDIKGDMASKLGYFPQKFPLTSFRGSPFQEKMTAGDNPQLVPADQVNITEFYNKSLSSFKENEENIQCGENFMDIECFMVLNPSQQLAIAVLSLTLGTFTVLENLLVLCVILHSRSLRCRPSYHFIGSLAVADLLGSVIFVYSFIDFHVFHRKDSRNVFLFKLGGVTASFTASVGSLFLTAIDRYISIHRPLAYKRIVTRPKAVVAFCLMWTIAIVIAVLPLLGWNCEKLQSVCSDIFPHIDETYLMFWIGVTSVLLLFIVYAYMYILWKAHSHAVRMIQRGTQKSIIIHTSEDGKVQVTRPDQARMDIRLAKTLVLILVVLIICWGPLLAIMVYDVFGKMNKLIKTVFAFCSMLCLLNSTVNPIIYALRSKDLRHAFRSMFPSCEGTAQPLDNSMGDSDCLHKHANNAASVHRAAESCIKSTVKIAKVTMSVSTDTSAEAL
Nature of the experiment: Agonist-induced GTP binding (GTPγ35S) assay at CB1, Example 8. It is filed as biochemical. As to conditions: IC50 at CB1, determined as described in Example 8; read-out: IC50. In a few lines: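 Membranes from Sf9 cells co-expressing hCB1 and heterotrimeric G-protein (10 μg protein) in Tris pH 7.4 buffer with 5 μM GDP. Test compounds (10^−10–10^−5 M) competed against 1 nM CP55,940 with […] GTPγ35S, 60 min at room temperature. Filter-bound radioactivity by scintillation, expressed as percent above basal.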
Regarding `COC(=O)c1cccc(NC(=O)Nc2ccc(CC#N)cc2)c1` [Compound 712, methyl 3-[({[4-(cyanomethyl)phenyl]amino}carbonyl)amino]benzoate], the IC50 is below 2 µM.

With `CC(C)Oc1ccc(NC(=O)Nc2ccc(F)c(F)c2)cc1` [Compound 694, 1-(3,4-difluorophenyl)-3-(4-isopropoxyphenyl)urea], the half-inhibitory concentration (IC50) is below 2 µM.

Take `O=C(Nc1ccc(OC(F)(F)F)cc1)Nc1cccc(OC(F)F)c1` [Compound 540, 1-[3-(difluoromethoxy)phenyl]-3-[4-(trifluoromethoxy)phenyl]urea]: the IC50 is below 2 µM.

For the compound `CC(C)Oc1ccc(NC(=O)Nc2ccc(F)cc2)cc1` [Compound 368, 1-(4-fluorophenyl)-3-(4-isopropoxyphenyl)urea], the IC50 was below 2 µM.

Regarding `CCc1ccc(NC(=O)Nc2ccc(C)cn2)cc1` [Compound 641, 1-(4-ethylphenyl)-3-(5-methylpyridin-2-yl)urea], the IC50 was below 2 µM.

With `CC(C)Oc1cccc(NC(=O)Nc2ccc(F)cc2)c1` [Compound 364, 1-(4-fluorophenyl)-3-(3-isopropoxyphenyl)urea], the IC50 is below 2 µM.

As to `Cc1cccnc1NC(=O)Nc1ccc(OC(F)F)cc1` [Compound 632, 1-[4-(difluoromethoxy)phenyl]-3-(3-methylpyridin-2-yl)urea], the IC50 was below 2 µM.

For `CCc1ccc(NC(=O)Nc2ccc(C(=O)OC(C)C)cc2)cc1` [Compound 502, isopropyl 4-({[(4-ethylphenyl)amino]carbonyl}amino)benzoate], the IC50 was below 2 µM.

For `CCOc1ccc(NC(=O)Nc2ccc(C(=O)OC(C)C)cc2)cc1` [Compound 599, isopropyl 4-({[(4-ethoxyphenyl)amino]carbonyl}amino)benzoate], the IC50 is below 2 µM.

With `N#CCOc1ccc(NC(=O)Nc2cc(F)cc(F)c2)cc1` [Compound 743, 1-[4-(cyanomethoxy)phenyl]-3-(3,5-difluorophenyl)urea], the IC50 was below 2 µM.

For the compound `CCCc1ccc(NC(=O)Nc2cccc(C)c2)cc1` [Compound 292, 1-(3-methylphenyl)-3-(4-propylphenyl)urea], the IC50 was below 2 µM.

As for `COCc1ccc(NC(=O)Nc2cccc(OC)c2)cc1` [Compound 544, 1-[4-(methoxymethyl)phenyl]-3-(3-methoxyphenyl)urea], the IC50 is below 2 µM.

Take `Cc1ccc(NC(=O)Nc2ccc(OC(F)(F)F)cc2)cc1F` [Compound 607, 1-(3-fluoro-4-methylphenyl)-3-[4-(trifluoromethoxy)phenyl]urea]: the IC50 was below 2 µM.

Regarding `CC(=O)c1cccc(NC(=O)Nc2ccc(OC(C)C)cc2)c1` [Compound 423, 1-(3-acetylphenyl)-3-(4-isopropoxyphenyl)urea], the IC50 was below 2 µM.

As to `COc1ccc(NC(=O)Nc2ccc([N+](=O)[O-])cc2)cc1` [Compound 557, 1-(4-methoxyphenyl)-3-(4-nitrophenyl)urea], the IC50 is below 2 µM.

Consider `CCC(=O)c1ccc(NC(=O)Nc2ccc(C)c(C)c2)cc1` [Compound 733, 1-(3,4-dimethylphenyl)-3-(4-propionylphenyl)urea], for which the IC50 is below 2 µM.

For the compound `COc1cccc(NC(=O)Nc2ccc(C)c(Cl)c2)c1` [Compound 621, 1-(3-chloro-4-methylphenyl)-3-(3-methoxyphenyl)urea], the IC50 is below 2 µM.

On to `O=C(Nc1cccc(OC(F)F)c1)Nc1ccccc1OC(F)(F)F` [Compound 541, 1-[3-(difluoromethoxy)phenyl]-3-[2-(trifluoromethoxy)phenyl]urea], for which the IC50 was below 2 µM.

As to `CN1CCN(S(=O)(=O)c2cccc(NC(=O)Nc3cccc(OC(F)F)c3)c2)CC1` [Compound 788, N-[3-(difluoromethoxy)phenyl]-N′-{3-[(4-methyl-1-piperazinyl)sulfonyl]phenyl}urea], the IC50 is below 2 µM.

Take `COc1cccc(NC(=O)Nc2ccc(C(=O)OC(C)C)cc2)c1` [Compound 597, isopropyl 4-({[(3-methoxyphenyl)amino]carbonyl}amino)benzoate]: the IC50 was below 2 µM.

With `CCOC(=O)c1ccc(NC(=O)Nc2ccc(OC)cc2)cc1` [Compound 594, ethyl 4-({[(4-methoxyphenyl)amino]carbonyl}amino)benzoate], the IC50 was below 2 µM.

Turning to `O=C(Nc1ccc(OC(F)F)cc1)Nc1ccc(Cl)cn1` [Compound 634, 1-(5-chloropyridin-2-yl)-3-[4-(difluoromethoxy)phenyl]urea], the 50% inhibitory concentration (IC50) is below 2 µM.

As for `CCCc1ccc(NC(=O)Nc2cccc(Cl)c2)cc1` [Compound 335, 1-(3-chlorophenyl)-3-(4-propylphenyl)urea], the half-inhibitory concentration (IC50) is below 2 µM.

Turning to `N#CCOc1ccc(NC(=O)Nc2ccc(OC(F)F)cc2)cc1` [Compound 582, 1-[4-(cyanomethoxy)phenyl]-3-[4-(difluoromethoxy)phenyl]urea], the IC50 is below 2 µM.

As to `CCc1ccc(NC(=O)Nc2ccc(Cl)c(C)c2)cc1` [Compound 446, 1-(4-chloro-3-methylphenyl)-3-(4-ethylphenyl)urea], the half-maximal inhibitory concentration (IC50) was below 2 µM.

For `CCOc1cccc(NC(=O)Nc2ccc(C(=O)OC)cc2)c1` [Compound 660, methyl 4-({[(3-ethoxyphenyl)amino]carbonyl}amino)benzoate], the IC50 is below 2 µM.

Take `CCOc1cccc(NC(=O)Nc2ccc(C)c(F)c2)c1` [Compound 681, 1-(3-ethoxyphenyl)-3-(3-fluoro-4-methylphenyl)urea]: the IC50 was below 2 µM.

As for `CC(=O)c1cccc(NC(=O)Nc2ccc(CC#N)cc2)c1` [Compound 504, 1-(3-acetylphenyl)-3-[4-(cyanomethyl)phenyl]urea], the IC50 is below 2 µM.

As to `CC(=O)c1ccc(NC(=O)Nc2ccc(OC(F)F)cc2)cc1` [Compound 427, 1-(4-acetylphenyl)-3-[4-(difluoromethoxy)phenyl]urea], the IC50 is below 2 µM.

As for `O=C(Nc1ccc(Cn2cncn2)cc1)Nc1cccc(OC(F)F)c1` [Compound 784, N-[3-(difluoromethoxy)phenyl]-N′-[4-(1H-1,2,4-triazol-1-ylmethyl)phenyl]urea], the IC50 is below 2 µM.

For `CCCOc1ccc(NC(=O)Nc2cc(C)cc(C)c2)cc1` [Compound 706, 1-(3,5-dimethylphenyl)-3-(4-propoxyphenyl)urea], the IC50 is below 2 µM.

For the compound `CCc1ccc(NC(=O)Nc2ccc(OC(F)(F)F)cc2)cc1` [Compound 517, 1-(4-ethylphenyl)-3-[4-(trifluoromethoxy)phenyl]urea], the IC50 is below 2 µM.

`O=C(Nc1ccccc1)Nc1cccc(OC(F)F)c1` [Compound 376, 1-[3-(difluoromethoxy)phenyl]-3-phenylurea]: the IC50 was below 2 µM.

For the compound `Cc1ccc(NC(=O)Nc2ccc(CC#N)cc2)cc1F` [Compound 727, 1-[4-(cyanomethyl)phenyl]-3-(3-fluoro-4-methylphenyl)urea], the IC50 was below 2 µM.

Staying with this experiment, now noted: Table I; IC50 at CB1, GTP binding with 1 nM CP55,940; read-out: IC50.
For `N#Cc1cccc(NC(=O)Nc2ccc(OC(F)F)cc2)c1` [Compound 8, N-(3-cyanophenyl)-N′-[4-(difluoromethoxy)phenyl]urea], the IC50 was below 2 µM.

As to `CCCCc1ccc(NC(=O)Nc2ccc(C)cc2)cc1` [Compound 37, N-(4-butylphenyl)-N′-(4-methylphenyl)urea], the half-maximal inhibitory concentration (IC50) is below 2 µM.

Turning to `CCCCc1ccc(NC(=O)Nc2ccccc2)cc1` [Compound 46, N-(4-butylphenyl)-N′-phenylurea], the half-inhibitory concentration (IC50) was below 2 µM.

With `CCc1ccc(NC(=O)Nc2ccc(O)cc2)cc1` [Compound 29, N-(4-ethylphenyl)-N′-(4-hydroxyphenyl)urea], the IC50 was below 2 µM.

As to `O=C(Nc1ccc(OC(F)F)cc1)Nc1cccc(F)c1` [Compound 16, N-[4-(difluoromethoxy)phenyl]-N′-(3-fluorophenyl)urea], the IC50 is below 2 µM.

Staying with this experiment, now noted: Table II; IC50 at CB1, GTP binding with 1 nM CP55,940; read-out: IC50.
On to `COc1cc(NC(=O)Nc2ccc(OC(F)F)cc2)cc(OC)c1` [Compound 91, N-[4-(difluoromethoxy)phenyl]-N′-(3,5-dimethoxyphenyl)urea], for which the IC50 is below 2 µM.

Take `Nc1ncc(Br)cc1NC(=O)Nc1ccc(OC(F)F)cc1` [Compound 136, N-(2-amino-5-bromopyridin-3-yl)-N′-[4-(difluoromethoxy)phenyl]urea]: the IC50 was below 2 µM.

For `COc1cc(NC(=O)Nc2ccc(OC(F)(F)F)cc2)ccc1OC(F)F` [Compound 100, N-[4-(difluoromethoxy)-3-methoxyphenyl]-N′-[4-(trifluoromethoxy)phenyl]urea], the concentration for half-maximal inhibition (IC50) was below 2 µM.

Turning to `CCc1cccc(NC(=O)Nc2ccc(OC(C)C)cc2)c1` [Compound 249, N-(3-ethylphenyl)-N′-(4-isopropoxyphenyl)urea], the IC50 was below 2 µM.

Take `CCOc1cccc(NC(=O)Nc2ccc(CC)cc2)c1` [Compound 231, N-(3-ethoxyphenyl)-N′-(4-ethylphenyl)urea]: the IC50 was below 2 µM.

For the compound `O=C(Nc1ccc(OC(F)F)cc1)Nc1ccc2ncccc2c1` [Compound 129, N-[4-(difluoromethoxy)phenyl]-N′-quinolin-6-ylurea], the concentration for half-maximal inhibition (IC50) was below 2 µM.

As for `CCOc1cccc(NC(=O)Nc2cccc(F)c2)c1` [Compound 203, N-(3-ethoxyphenyl)-N′-(3-fluorophenyl)urea], the IC50 is below 2 µM.

With `CCCOc1ccc(NC(=O)Nc2cccc(F)c2)cc1` [Compound 209, N-(3-fluorophenyl)-N′-(4-propoxyphenyl)urea], the IC50 is below 2 µM.

`CC(C)c1ccc(NC(=O)Nc2cccc(C#N)c2)cc1` [Compound 194, N-(3-cyanophenyl)-N′-(4-isopropylphenyl)urea]: the IC50 is below 2 µM.

`CCc1ccc(NC(=O)Nc2cccc(CC)c2)cc1` [Compound 179, N-(3-ethylphenyl)-N′-(4-ethylphenyl)urea]: the IC50 is below 2 µM.

`O=C(Nc1ccc(OC(F)F)cc1)Nc1cccc(OC(F)F)c1` [Compound 103, N-[3-(difluoromethoxy)phenyl]-N′-[4-(difluoromethoxy)phenyl]urea]: the IC50 was below 2 µM.
